Reference: patent US4388234A, “Peptide isolation” (Hoffmann-La Roche Inc., priority 1981, dated 1983)

System: Candida albicans ATCC 10231
Experiment: protective activity against opportunistic infections in immunosuppressed (5-FU pretreated) mice
Format: in vivo
Conditions: for Survivors at Day 15 / Survivors at Day 8: daily for eight days with 5-FU 25 mg/kg/day i.p., female ddY mice; for Survivors at Day 15: survivors/total 15 days after infection; for Survivors at Day 8: survivors/total eight days after infection
Experimental: The mice were then infected with Candida albicans ATCC 10231 (1×10^5cells or more) at 24 hours after the last treatment. One control group was administered 5-FU and saline solution and a second control group received neither 5-FU nor a thymic polypeptide prior to infection with Candida albicans.

Question: How did the “protective effects against infection” value (compared with the polypeptides of Thymosin Fraction 5, thymosin α1 and thymosin β8, 5-FU immunosuppressed mice) turn out when “Thymosin β4: peptide containing 44 amino acid residues, isolated from calf thymus; contained in APF” was run?
Answer: Its value is “of comparable similar magnitude”.

Question: And the “Survivors at Day 15” value (dose 0.4 μg/kg/day)?
Answer: Its value is 6/10.

Question: And the “Survivors at Day 8” value (dose 0.4 μg/kg/day)?
Answer: Its value is 7/10.

Question: What about the “Survivors at Day 15” value (dose 4 μg/kg/day) of the same substance?
Answer: The value was 5/10.

Question: What about the “Survivors at Day 8” value (dose 4 μg/kg/day) of the same substance?
Answer: Its value is 5/10.

Question: And the “Survivors at Day 15” value (dose 40 μg/kg/day)?
Answer: Its value is 1/10.

Question: And the “Survivors at Day 8” value (dose 40 μg/kg/day)?
Answer: Its value is 1/10.
